In series [1] the test system is green mirid adults and nymphs. The series is described as follows: Bollgard II cotton, Auscott-Togo 2012-13, Field 77 (Experiment 1): green mirids. It counts as in vivo, Creontiades dilutus. As to conditions: 62.5 mL/ha. Here is the method:
(§1) Two separate trials (Experiment 1 in Field 77; Experiment 2 in Field 63) were conducted in Bollgard II cotton crops on a commercial cotton farm at Auscott-Togo near Narrabri, New South Wales from 11 Feb. to 5 Mar. 2013 (Field 77) and 19 Feb. to 6 Mar. 2013 (Field 63). The cotton used for each of the trials was at the late squaring to pod setting and maturation stages which was fairly attractive to green mirids.
(§2) In both trials, the efficacy of the following treatments against green mirids and predatory insects was evaluated: • 1. 250 mL/ha DAT 511 spore in oil (1×10^7 spores/ml); • 2. 500 mL/ha DAT 511 spore in oil (1×10^7 spores/ml); • 3. 1 L/ha DAT 511 spore in oil (1×10^7 spores/ml); • 4. 62.5 mL/ha of fipronil; and • 5. Unsprayed (negative control).
(§3) The treatment plots were arranged in a randomized complete block design with six replicates per treatment. Each replicated plot measured 40 m wide (40 rows) and 90 m long.
(§4) Foliar application of each treatment was made on 28 Feb. (for both green mirids and beneficial insects) and 13 Mar. 2012 (for beneficial insects alone) using a ground spray rig fitted with flat fan nozzles to achieve a droplet size of 200 μm. The treatment was applied during the mornings when temperatures were between 20° C. and 28° C. The timing of treatment was based on the IPM Guidelines and recommendations by CottonLogic to use an economic threshold of 0.5 green mirids per metre (Deutscher and Wilson 1999; Khan et al. 2004).
(§5) Pre-treatment counts of green mirid adults and nymphs, predatory beetles, predatory bugs, predatory lacewings and spiders were made by visual inspection of whole cotton plants. Both adults and nymphs of beneficial insects were counted. Plants were assessed in randomly selected one-metre lengths of row of each replicate (i.e. 6 m per treatment). Post-treatment counts were made 3, 7, 14 and 21 days after treatment. Data are expressed as numbers of green mirid adults and nymphs counted per metre for each treatment.

The test system of series [2] is predatory bugs. The series is described as follows: Rate trial on conventional cotton, Norwood 2012 (Example 10): predatory bugs. As to conditions: P>0.05. In kind it is in vivo, Hemiptera (Nabidae, Lygaeidae, Pentatomidae). Here is the method:
This trial was conducted on commercial conventional cotton crops on a farm at Norwood (29° 28'S, 149° 50′E) near Moree, NSW, from 28 Feb. to 21 Mar. 2012. The cotton used for the trial was at the early squaring stage, when it was attractive to green mirids (Khan et al. 2004).
The efficacy of the following treatments against green mirids and predatory insects were evaluated: • 1. 250 mL/ha DAT 511 spore in oil (1×10^7 spores/ml); • 2. 500 mL/ha DAT 511 spore in oil (1×10^7 spores/ml); • 3. 1 L/ha DAT 511 spore in oil (1×10^7 spores/ml); • 4. 62.5 mL/ha of Fipronil; and • 5. Unsprayed (negative control).
as §3
Foliar application of each treatment was made on 28 Feb. (for both green mirids and beneficial insects) and 13 Mar. […]
Pre-treatment counts of adult and nymph green mirids, predatory beetles, predatory bugs, predatory lacewings and spiders were made by visual inspection of whole cotton plants. Both adults and nymphs of beneficial insects were counted. Plants were assessed in randomly selected one-metre lengths of row of each treatment replicate (i.e. 6 m per treatment). […] Data are expressed as numbers of green mirid adults and nymphs counted per metre per treatment.

Another series has as its system apple dimpling bugs. The series is described as follows: Rate trial on conventional cotton refuge crops, Undabri 2012 (Example 12): apple dimpling bugs. It counts as in vivo, Campylomma liebknechti. The protocol: (§6) This trial was conducted using commercial conventional cotton refuge crops at Undabri in Goondiwindi (28° 55'S, 150° 31′E) from 14 Feb. to 6 Mar. 2012.
(§7) The efficacy of the following treatments against green mirids, green vegetable bugs and predatory insects was assessed: • 1. 250 mL/ha DAT 511 spore in oil (1×10^7 spores/ml); • 2. 500 mL/ha DAT 511 spore in oil (1×10^7 spores/ml); • 3. 1 L/ha DAT 511 spore in oil (1×10^7 spores/ml); • 4. 62.5 mL/ha fipronil; and • 5. Unsprayed (negative control).
(§8) The plots were arranged in a randomized complete block design with three replicates per treatment. Each replicated plot measured 8 m (8 rows) wide and 250 m long.
(§9) Foliar applications of each treatment were made on 14 Feb. 2012 using a ground spray rig fitted with flat fan nozzles to achieve a droplet size of 200 μm. All insecticide formulations were water miscible. All treatments were applied using a spray volume of 100 L/ha. The untreated (negative control) plot was left unsprayed and the plot treated with synthetic insecticide received two applications similar to, and on the same date as, the plots treated with the fungus.
(§10) For each replicate, visual counts of adults and nymphs of green mirids, green vegetable bugs (GVB), apple dimpling bugs and predatory insects on whole cotton plants were made in a randomly selected 1 m length of row of cotton plants (i.e. 6 m per treatment). […]

The test system of the next series is predatory beetles. The series is described as follows: Rate trial on conventional cotton refuge crops, Undabri 2012 (Example 12): predatory beetles. It counts as in vivo, Coleoptera (Coccinellidae, Melyridae). Particulars: DAT 511 250 mL/ha, 500 mL/ha and 1.0 L/ha; fipronil 62.5 mL/ha. Here is the method:
as §6, §7, §8, §9, §10

Series [3] relates to predatory bugs. The series is described as follows: Bollgard II cotton, Auscott-Togo 2012-13, Field 63 (Experiment 2): predatory bugs. In kind it is in vivo, Hemiptera (Nabidae, Lygaeidae, Pentatomidae). Particulars: 62.5 mL/ha. Here is the method: as §1, §2, §3, §4, §5

Regarding `N#Cc1nn(-c2c(Cl)cc(C(F)(F)F)cc2Cl)c(N)c1[S+]([O-])C(F)(F)F` (centres unmarked) [fipronil], the “No. green mirid adults and nymphs per meter” value in series [1] (3 DAT) is reported as 1.33 ± 0.33 a per meter; in series [1] (7 DAT) it was 0.00 ± 0.00 b per meter; in series [1] (14 DAT) it was 0.00 ± 0.00 a per meter; in series [1] (21 DAT), 0.00 ± 0.00 a per meter; in series [1] (pre-spray counts) it was 4.33 ± 0.67 a per meter. Also, in the series with predatory bugs [2], the “number of predatory bugs versus unsprayed (control) plots” value is “No significant difference”. In the series with apple dimpling bugs (3, 7, 14 and 21 DAT, P<0.01), the “apple dimpling bug adults per metre versus the unsprayed plot” value is recorded as “significantly fewer”. In addition, in the series with apple dimpling bugs (7 DAT only, P<0.05), the “apple dimpling bug nymphs per metre versus unsprayed plots” value is given as “significantly lower”. In addition, the “effect on number of predatory beetles per metre” value in the series with predatory beetles is reported as “identical”. For the same compound, the “No. predatory bugs per meter” value in the series on predatory bugs [3] (3 DAT) is recorded as 0.00 ± 0.00 a per meter; in the series with predatory bugs [3] (7 DAT), 0.33 ± 0.33 a per meter; with predatory bugs [3] (14 DAT), 0.00 ± 0.00 a per meter; with predatory bugs [3] (21 DAT), 0.00 ± 0.00 a per meter; with predatory bugs [3] (pre-spray counts) it was 0.00 ± 0.00 a per meter.

The values are drawn from patent publication US10563272B2, “Compositions comprising Metarhizium fungi and use thereof as a pesticide” (Cotton Research and Development Corporation, priority 2015, dated 2020).
